In data set [1] the target is T1, ATP-dependent translocase ABCB1 (Homo sapiens, UniProt P08183). Kind of data set: TP_TRANSPORTER: transepithelial transport (basal to apical) in MDR1-expressing LLC-PK1 cells. The class given is functional, cell-based. To be noted: pig.
In data set [2] the target is T1, ATP-dependent translocase ABCB1. Kind of data set: TP_TRANSPORTER: inhibition of Digoxin transepithelial transport (basal to apical) (Digoxin: 5 uM) in Caco-2 cells. The class given is functional, cell-based.

T1 sequence (P08183 whole entry): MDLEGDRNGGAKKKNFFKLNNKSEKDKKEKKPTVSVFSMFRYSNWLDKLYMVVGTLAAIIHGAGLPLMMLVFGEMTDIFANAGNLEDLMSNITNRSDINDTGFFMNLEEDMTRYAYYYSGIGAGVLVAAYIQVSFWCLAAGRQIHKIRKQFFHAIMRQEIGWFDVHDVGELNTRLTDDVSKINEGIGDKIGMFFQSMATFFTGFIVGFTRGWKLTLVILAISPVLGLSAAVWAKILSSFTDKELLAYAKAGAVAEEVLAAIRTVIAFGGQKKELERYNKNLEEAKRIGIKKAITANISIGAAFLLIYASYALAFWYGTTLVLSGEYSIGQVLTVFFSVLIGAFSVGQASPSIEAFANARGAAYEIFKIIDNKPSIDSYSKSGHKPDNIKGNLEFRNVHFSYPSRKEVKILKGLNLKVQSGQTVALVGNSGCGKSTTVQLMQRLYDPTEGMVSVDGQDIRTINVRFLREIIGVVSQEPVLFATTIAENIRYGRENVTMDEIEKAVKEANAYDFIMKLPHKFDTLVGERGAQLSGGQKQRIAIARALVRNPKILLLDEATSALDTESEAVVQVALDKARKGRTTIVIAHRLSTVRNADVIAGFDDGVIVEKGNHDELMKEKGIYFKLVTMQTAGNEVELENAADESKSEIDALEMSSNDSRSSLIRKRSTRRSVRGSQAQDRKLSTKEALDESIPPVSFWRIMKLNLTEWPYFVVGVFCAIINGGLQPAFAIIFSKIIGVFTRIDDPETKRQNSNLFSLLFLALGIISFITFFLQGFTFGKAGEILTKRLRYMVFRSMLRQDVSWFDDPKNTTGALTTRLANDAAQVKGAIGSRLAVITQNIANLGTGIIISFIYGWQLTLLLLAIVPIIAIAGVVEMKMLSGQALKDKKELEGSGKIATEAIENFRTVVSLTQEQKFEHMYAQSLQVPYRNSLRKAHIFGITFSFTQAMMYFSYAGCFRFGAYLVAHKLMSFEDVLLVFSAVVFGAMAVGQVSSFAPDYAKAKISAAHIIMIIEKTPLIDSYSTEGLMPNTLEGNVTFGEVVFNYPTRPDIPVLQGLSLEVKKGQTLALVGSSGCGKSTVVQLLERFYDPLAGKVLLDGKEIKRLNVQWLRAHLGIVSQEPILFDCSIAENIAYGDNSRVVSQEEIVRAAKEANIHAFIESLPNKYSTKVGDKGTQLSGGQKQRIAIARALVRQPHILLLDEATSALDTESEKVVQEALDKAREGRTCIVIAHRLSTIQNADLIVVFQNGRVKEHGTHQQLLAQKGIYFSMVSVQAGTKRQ

By IC50 is commonly meant the concentration needed to halve the response being measured. A higher IC50 goes with weaker potency in that assay. For `Cc1c(OCC(F)(F)F)ccnc1C[S+]([O-])c1nc2ccccc2[nH]1` (stereo unspecified) [LANSOPRAZOLE], in data set [1], the Activity entry is “substrate [+]”. In data set [2], this molecule came in with an IC50 of 62.8 µM.
The corresponding values for `COc1ccc2[nH]c([S+]([O-])Cc3ncc(C)c(OC)c3C)nc2c1` (stereo unspecified) [OMEPRAZOLE] are “substrate [+]” and 17.7 µM.
The corresponding values for `COc1ccnc(C[S+]([O-])c2nc3ccc(OC(F)F)cc3[nH]2)c1OC` (stereo unspecified) [PANTOPRAZOLE] are “substrate [+]” and 17.9 µM.

These data come from ChEMBL document CHEMBL2074158, “Interaction of omeprazole, lansoprazole and pantoprazole with P-glycoprotein” (Naunyn Schmiedebergs Arch Pharmacol, 2001).
